Experimental findings from patent publication EP1424337A1, “4-hydroxy derivatives of 5,6,9,10-tetrahydro-10-((2-methyl-1h-imidazol-1-yl)methyl)-4h-pyrido-(3,2,1-jk)-carbazol-11(8h)-one” (Solvay Pharmaceuticals GmbH, priority 2002, dated 2004) are described below.

By Kd is commonly meant the free concentration of one partner at which half of the binding sites on the other are occupied at equilibrium, for simple one-to-one binding.

The target in one experiment is T1, 5-HT3 receptor (Cavia porcellus, UniProt O70212).
T1 construct: lleal segments were isolated and mounted in an organ bath; from tissue; host or cells: isolated guinea-pig ileal segments (female, Pirbright White)
T1 sequence (O70212 20-490): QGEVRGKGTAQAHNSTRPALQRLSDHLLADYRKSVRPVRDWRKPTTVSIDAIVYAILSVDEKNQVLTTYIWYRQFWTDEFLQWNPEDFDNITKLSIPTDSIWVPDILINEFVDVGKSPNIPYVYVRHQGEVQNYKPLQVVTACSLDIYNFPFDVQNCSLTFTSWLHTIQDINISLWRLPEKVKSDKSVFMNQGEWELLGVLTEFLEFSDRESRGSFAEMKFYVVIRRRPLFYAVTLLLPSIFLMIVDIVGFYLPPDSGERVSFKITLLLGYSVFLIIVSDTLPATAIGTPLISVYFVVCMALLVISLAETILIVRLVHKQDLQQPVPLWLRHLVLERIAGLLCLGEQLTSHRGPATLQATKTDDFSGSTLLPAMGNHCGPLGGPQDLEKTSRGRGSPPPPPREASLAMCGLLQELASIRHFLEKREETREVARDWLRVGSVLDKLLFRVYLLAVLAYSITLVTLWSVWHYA
Description: 2-methyl-5-HT induced contractions in isolated guinea-pig ileal preparations (5-HT3 receptor antagonism, Schild plot). Further details: species or system guinea pigs. The conditions noted are these: for effect on concentration response curve for 2-methyl-5-HT: bath application; for effect on concentration response curve for 2-methyl-5-HT / Kb: guinea-pig ileum; for Kb: agonist 2-methyl-5-HT 0.32 - 100 µM, bath concentrations 0.1 and 1 µM (Ib), 1 and 3 µM (Ic), 5-6 preparations, read-out: pA2 (converted). From the text: 2. Effect of mammalian cilansetron 4-hydroxymetabolites from dog's urine of formulas Ib and Ic on 2-methyl-5-HT induced contractions in ileal preparations isolated from guinea pigs (5-HT3 receptor antagonism)
In this test method, the antagonistic potency of the mammalian cilansetron 4-hydroxymetabolites from dog's urine of formulas Ib and Ic was investigated by determining the shift of the concentration-response curve for the specific 5-HT3 receptor agonist 2-methyl-5-HT in preparations from the guinea-pig ileum.
Guinea-pigs (female, Pirbright White, about 300 g) were killed by a blow on the head and bled from the carotid arteries. lleal segments were isolated and mounted in an organ bath containing a salt solution continuously gassed with carbogen and kept at 37 °C. The composition of the solution in mM was 136.9 NaCl, 2.7 KCI, 1.77 CaCl2, 0.8 MgCl2, 0.6 NaH2PO4, 11.9 NaHCO3, and 5 glucose. The preparations were preloaded with 10 mN and allowed to equilibrate for 90 - 120 minutes (= min.). The concentration response curves for 2-methyl-5-HT (0.32 - 100 µM, by company Sigma) were constructed non-cumulatively to avoid desensitization. The measurement was made at the point of maximal contraction and the agonist was washed out as soon as peak response was reached. A first 2-methyl-5-HT curve was followed by another concentration response curve in the presence of one concentration of the antagonist. The response to the highest concentration of 2-methyl-5-HT obtained in the first concentration response curve was set to 100 %. For each compound at least two concentrations of the antagonist were tested in different sets. Data from 5-6 preparations were used for each concentration response curve. Schild plots were calculated and the pA2 value was determined. The pA2-value is the negative logarithm of the molar concentration of the antagonist which causes a rightward shift of the concentration response curve for the agonist by a factor of 2. The higher the pA2-value is, the higher is the potency of a compound.
All test compounds were initially dissolved in dimethylsulfoxide (= DMSO) at concentrations of 10^-2 mol/I and were further diluted with water. The final bath concentrations for the different compounds used were 0.1 and 1 µM for compound of formula Ib and 1 and 3 µM for compound of formula Ic. […]
In this test method, the 5-HT3 agonist 2-methyl-5-HT evoked dose-dependent contractions of the guinea-pig ileum with a pD2-value of 5.2. The pD2-value is the negative logarithm of the molar […].

Another experiment has as its target T2, serotonin 5-HT3 receptor (Mus musculus, UniProt P23979).
T2 construct: the 5-HT3 receptor which was endogenously expressed in the human cell line N1E-115; endogenous in cells; host or cells: N1E-115 neuroblastoma cells (membrane suspensions)
T2 sequence (P23979 24-483 isoform P23979-2 limits assumed): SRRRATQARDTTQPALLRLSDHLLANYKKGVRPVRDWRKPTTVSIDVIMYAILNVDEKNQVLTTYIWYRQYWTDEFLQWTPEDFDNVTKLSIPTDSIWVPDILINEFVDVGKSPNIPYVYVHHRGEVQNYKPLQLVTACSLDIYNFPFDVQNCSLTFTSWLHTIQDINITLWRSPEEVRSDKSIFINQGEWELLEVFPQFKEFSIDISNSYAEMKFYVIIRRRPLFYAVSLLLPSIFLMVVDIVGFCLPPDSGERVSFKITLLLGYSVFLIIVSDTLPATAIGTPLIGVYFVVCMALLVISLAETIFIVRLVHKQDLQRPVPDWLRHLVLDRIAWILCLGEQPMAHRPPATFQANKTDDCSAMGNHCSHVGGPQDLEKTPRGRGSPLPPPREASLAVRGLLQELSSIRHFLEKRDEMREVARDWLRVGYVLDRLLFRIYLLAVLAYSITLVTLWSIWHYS
Description: Radioligand binding assay with [3H]-GR-65630 on membranes of cell line N1E-115. More on the design: species or system human. To be noted: for Ki: competition with [^3H]-GR-65630 (0.35 nM), N1E-115 membranes, 20 mM HEPES pH 7.4, 150 mM NaCl, 25°C, 60 min, Cheng and Prusoff, read-out: Kl. The method, then:
1. Affinity of 4-hydroxy derivatives of 5,6,9,10-tetrahydro-10-[(2-methyl-1H-imidazol-1-yl)methyl]-4H pyrido-[3,2,1-jk]-carbazol-11(8H)-one of formulas Ib - le for the human serotonin 5-HT3 receptor
In this test method, the ability of the 4-hydroxy derivatives of 5,6,9,10-tetrahydro-10-[(2-methyl-1H-imidazol-1-yl)methyl]-4H-pyrido-[3,2,1-jk]-carbazol-11(8H)-one of formulas Ib - le was assessed, for binding to the 5-HT3 receptor which was endogenously expressed in the human cell line N1E-115 and using tritiated GR-65630 as a radioligand.
The binding assays were carried out using the method of Hoyer and Neijt (see Hoyer, D., Neijt H.C., Mol. Pharmacol. 33, (1988) 303-309). Tritiated GR-65630 was used as radioligand and membrane suspensions, prepared in a known manner from the human neuroblastoma cell line N1E-115. Compounds have been tested for binding in various concentrations to compete with [^3H]-GR-65630 (0.35 nM final concentration) in 20 mM HEPES pH 7.4, containing 150 mM NaCl at 25°C for 60 min. Thereafter, the membranes were filtrated over glass fiber filters and bound radioactivity was counted by liquid scintillation counting. Each concentration was tested in triplicate, nonspecific binding was assessed by incubation with the reference compound MDL-72222 (1 µM).
Plotting the amount of bound radioactivity against the concentration of the competing compound allowed estimation of an IC50 value, i.e. that concentration at which 50% of the control radioligand binding remains. […]

On to `Cc1[nH]c2ccc(O)cc2c1CCN` [2-methyl-5-HT, reference compound], for which the EC50 at 5-HT3 receptor (agonist-evoked dose-dependent contractions of the guinea-pig ileum, read-out: pD2-value (converted)) was 6310 nM.

With `Cc1nccn1C[C@H]1CCc2c(c3cccc4c3n2CC[C@@H]4O)C1=O` [Ib], the Ki at serotonin 5-HT3 receptor is 3 nM. Further, on 5-HT3 receptor, the “effect on concentration response curve for 2-methyl-5-HT” value was “dose-dependent shift of the concentration response curve to the right” and the Kb was 186 nM.

Turning to `Cc1nccn1C[C@H]1CCc2c(c3cccc4c3n2CC[C@H]4O)C1=O` [Ic], the Ki on serotonin 5-HT3 receptor stood at 10 nM. Further, on 5-HT3 receptor, the “effect on concentration response curve for 2-methyl-5-HT” value is on record as “dose-dependent shift of the concentration response curve to the right” and the Kb is 355 nM.

Take `Cc1nccn1C[C@@H]1CCc2c(c3cccc4c3n2CC[C@@H]4O)C1=O` [Id]: the Ki on serotonin 5-HT3 receptor was 8.8 nM.

As for `Cc1[nH]cnc1CCC(=O)c1cn(C)c2ccccc12` [[^3H]-GR-65630, reference compound], on serotonin 5-HT3 receptor (radioligand, established separately, read-out: Kd, the affinity constant for [^3H]-GR-65630), the Kd turned out to be 0.33 nM.

For `Cc1nccn1C[C@@H]1CCc2c(c3cccc4c3n2CC[C@H]4O)C1=O` [le], the Ki at serotonin 5-HT3 receptor is 38 nM.
